Source: patent US20230322789A1, “PYRAZOLOPYRIDAZINONE COMPOUND, AND PHARMACEUTICAL COMPOSITION AND USE THEREOF” (BroadenBio Co., Ltd., priority 2020, published 2023)
pIC50: −log10 of the molar value. Counter-ions that a name gives are not always drawn.

Tests used:
Human Jurkat-E6-1 cells = assay: Measurement of IL-2 secretion of Jurkat cells by ELISA; assay type: cell-based; details: Homo sapiens, Jurkat E6.1, anti-CD3/anti-CD28 stimulation 24 hours, read-out: Percentage of the amount of IL-2 secreted from compound treated/DMSO-treated cells; for activity at 3 µM: test compound 3.0 μM; for activity at 1 µM: test compound 1.0 μM; for activity at 0.33 µM: test compound 0.33 μM
Experimental: 2. Measurement of IL-2 Secretion of Jurkat Cells by ELISA
Human Jurkat-E6-1 cells were incubated with various concentrations of test compounds for 30 minutes in a humidified incubator at 37° C. and […]. Cells were transferred to cell culture plates pre-coated with anti-human CD3 antibody, then soluble anti-human CD28 antibody was added, and cells were stimulated for 24 hours at 37° C. and 5% CO2 in a humidified incubator. The cell culture medium was collected by centrifugation, and was then transferred to a 96-well transparent microtiter plate (Thermo) pre-coated with anti-human IL-2 antibody, incubated at room temperature for 2 hours, and gently shaken, washed with washing buffer for 4 times, and then followed the ELISA MAX Deluxe Set Human IL-2 (BioLegend) kit procedure, used a microplate reader (Molecular Device, i3X) to read the GD value. The best standard curve was selected by the microplate reader application software, and the corresponding concentration was calculated according to the GD value of the standard. Results are expressed as a percentage of the amount of IL-2 secreted from compound-treated/DMSO-treated cells.

HPK1 = HPK1 (Homo sapiens (Human), UniProt Q92918); assay: HPK1 kinase activity inhibition test (ADP-Glo, luminescence); assay type: biochemical; details: HPK1 5 nM, ATP 2 μM, read-out: IC50, inhibitory effects of compounds on HPK1 kinase activity
HPK1, sequence (Q92918 whole entry): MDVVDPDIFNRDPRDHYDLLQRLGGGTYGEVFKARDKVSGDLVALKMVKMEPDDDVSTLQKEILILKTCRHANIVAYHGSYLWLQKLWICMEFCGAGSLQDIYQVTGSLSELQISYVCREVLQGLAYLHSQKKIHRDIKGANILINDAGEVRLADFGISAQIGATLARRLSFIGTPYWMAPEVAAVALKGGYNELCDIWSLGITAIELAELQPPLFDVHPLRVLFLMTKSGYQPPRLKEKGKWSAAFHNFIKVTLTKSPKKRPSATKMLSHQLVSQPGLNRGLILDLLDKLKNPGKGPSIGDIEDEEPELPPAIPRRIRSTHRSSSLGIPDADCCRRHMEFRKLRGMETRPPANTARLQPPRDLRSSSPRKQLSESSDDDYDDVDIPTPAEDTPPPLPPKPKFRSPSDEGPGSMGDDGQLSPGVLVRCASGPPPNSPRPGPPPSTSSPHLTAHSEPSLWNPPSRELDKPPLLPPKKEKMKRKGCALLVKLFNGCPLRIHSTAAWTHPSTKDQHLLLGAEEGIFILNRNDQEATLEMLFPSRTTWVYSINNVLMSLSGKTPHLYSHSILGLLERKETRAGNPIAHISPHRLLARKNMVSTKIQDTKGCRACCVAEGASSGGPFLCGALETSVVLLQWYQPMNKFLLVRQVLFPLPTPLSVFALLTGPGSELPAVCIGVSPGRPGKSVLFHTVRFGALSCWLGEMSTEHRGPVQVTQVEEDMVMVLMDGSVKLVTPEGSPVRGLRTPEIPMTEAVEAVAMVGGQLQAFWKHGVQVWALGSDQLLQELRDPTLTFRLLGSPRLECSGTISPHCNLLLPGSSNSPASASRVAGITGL
Method in brief: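 HPK1 autophosphorylation was run without added substrate. Kinase and compound were preincubated 10 min at 25° C., then ATP was added for 60 min at 25° C. ADP formed was detected by ADP-Glo luminescence, and IC50 was taken from a four-parameter nonlinear fit.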

SMILES | activity at 3 µM (Human Jurkat-E6-1 cells) | pIC50 (HPK1) | activity at 1 µM (Human Jurkat-E6-1 cells) | activity at 0.33 µM (Human Jurkat-E6-1 cells)
COc1cccc(F)c1-n1nc2c(-c3ccc(N4CCN5CCOC[C@@H]5C4)cc3)n[nH]c2cc1=O [Compound 135, (S)-5-(2-fluoro-6-methoxyphenyl)-3-(4-(hexahydropyrazino[2,1-c][1,4]oxazin-8(1H)-yl)phenyl)-1H-pyrazolo[4,3-c]pyridazin-6(5H)-one] | 964% | ≥ 7.30 | – | –
COc1cccc(F)c1-n1nc2c(-c3cccc(N4CCN(C)CC4)c3)n[nH]c2cc1=O [Compound 199, 5-(2-fluoro-6-methoxyphenyl)-3-(3-(4-methylpiperazin-1-yl)phenyl)-1H-pyrazolo[4,3-c]pyridazin-6(5H)-one] | – | ≥ 7.30 | 328% | –
Cc1cccc(F)c1-n1nc2c(-c3ccc4c(c3)CN3C(=O)OC[C@@H]3C4)n[nH]c2cc1=O [Compound 177, (S)-7-(5-(2-fluoro-6-methylphenyl)-6-oxo-5,6-dihydro-1H-pyrazolo[4,3-c]pyridazin-3-yl)-10,10a-dihydro-1H-oxazolo[3,4-b]isoquinolin-3(5H)-one] | 481% | ≥ 7.30 | – | –
COc1cccc(F)c1-n1nc2c(-c3ccc(C4=CCN(C)CC4)cc3)n[nH]c2cc1=O [Compound 23, 5-(2-fluoro-6-methoxyphenyl)-3-(4-(1-methyl-1,2,3,6-tetrahydro-pyridin-4-yl)phenyl)-1H-pyrazolo[4,3-c]pyridazin-6(5H)-one] | – | ≥ 7.30 | – | 379%
COc1cccc(F)c1-n1nc2c(-c3ccc(N4CCOCC4)nc3)n[nH]c2cc1=O [Compound 27, 5-(2-fluoro-6-methoxyphenyl)-3-(6-morpholinopyrid-3-yl)-1H-pyrazolo[4,3-c]pyridazin-6(5H)-one] | – | ≥ 7.30 | – | 302%
COc1cccc(F)c1-n1nc2c(-c3cnc(N4CCN(C)CC4)nc3)n[nH]c2cc1=O [Compound 28, 5-(2-fluoro-6-methoxyphenyl)-3-(2-(4-methylpiperazin-1-yl)pyrimidin-5-yl)-1H-pyrazolo[4,3-c]pyridazin-6(5H)-one] | – | ≥ 7.30 | 302% | –
Cc1cccc(F)c1-n1nc2c(-c3ccc(N4CCC(N5CCN(C)CC5)CC4)cc3)n[nH]c2cc1=O [Compound 143, 5-(2-fluoro-6-methylphenyl)-3-(4-(4-(4-methylpiperazin-1-yl)piperidin-1-yl)phenyl)-1H-pyrazolo[4,3-c]pyridazin-6(5H)-one] | 786% | ≥ 7.30 | – | –
[2H]C([2H])([2H])N1CCN(c2ccc(-c3n[nH]c4cc(=O)n(-c5c(C)cccc5F)nc34)cc2)CC1 [Compound 81, 5-(2-fluoro-6-methylphenyl)-3-(4-(4-(methyl-d3)piperazin-1-yl)phenyl)-1H-pyrazolo[4,3-c]pyridazin-6(5H)-one] | 679% | ≥ 7.30 | – | –
Cc1cccc(F)c1-n1nc2c(-c3ccc(N4CCN(C5COC5)CC4)nc3)n[nH]c2cc1=O [Compound 103] | 716% | ≥ 7.30 | – | –
COc1cc(C#N)cc(F)c1-n1nc2c(-c3ccc(N4CCN(C5COC5)CC4)cc3)n[nH]c2cc1=O [Compound 86, 3-fluoro-5-methoxy-4-(3-(4-(4-(oxetan-3-yl)piperazin-1-yl)phenyl)-6-oxo-1H-pyrazolo[4,3-c]pyridazin-5(6H)-yl)benzonitrile] | 334% | ≥ 7.30 | – | –
Cc1cccc(F)c1-n1nc2c(-c3ccc(N4CCN(C5CCOC5)CC4)nc3)n[nH]c2cc1=O (stereo not shown) [Compound 106, 5-(2-fluoro-6-methylphenyl)-3-(6-(4-(tetrahydrofuran-3-yl)piperazin-1-yl)pyrid-3-yl)-1H-pyrazolo[4,3-c]pyridazin-6(5H)-one] | 833% | ≥ 7.30 | – | –
CN1CCN(c2ccc(-c3n[nH]c4cc(=O)n(-c5c(O)cccc5F)nc34)cn2)CC1 [Compound 100, 5-(2-fluoro-6-hydroxylphenyl)-3-(6-(4-methylpiperazin-1-yl)pyrid-3-yl)-1H-pyrazolo[4,3-c]pyridazin-6(5H)-one hydrobromide] | 284% | 6.30 to 7.30 | – | –
COc1cc(C#N)cc(F)c1-n1nc2c(-c3ccc4c(c3)CN(C)CC4)n[nH]c2cc1=O [Compound 159, 3-fluoro-5-methoxy-4-(3-(2-methyl-1,2,3,4-tetrahydroisoquinolin-7-yl)-6-oxo-1H-pyrazolo[4,3-c]pyridazin-5(6H)-yl)benzonitrile] | 454% | ≥ 7.30 | – | –
COc1cccc(F)c1-n1nc2c(-c3ccc(N4CCC(N5CCOCC5)CC4)cc3)n[nH]c2cc1=O [Compound 144, 5-(2-fluoro-6-methoxyphenyl)-3-(4-(4-morpholinopiperidin-1-yl)phenyl)-1H-pyrazolo[4,3-c]pyridazin-6(5H)-one] | 716% | ≥ 7.30 | – | –
Cc1cccc(F)c1-n1nc2c(-c3ccc(N4CCN(C)C(CO)C4)nc3)n[nH]c2cc1=O (stereo not shown) [Compound 128, 5-(2-fluoro-6-methylphenyl)-3-(6-(3-(hydroxymethyl)-4-methylpiperazin-1-yl)pyrid-3-yl)-1H-pyrazolo[4,3-c]pyridazin-6(5H)-one] | 472% | ≥ 7.30 | – | –
Cc1cc(C#N)cc(F)c1-n1nc2c(-c3ccc4c(c3)CN(C)CC4)n[nH]c2cc1=O [Compound 170, 3-fluoro-5-methyl-4-(3-(2-methyl-1,2,3,4-tetrahydroisoquinolin-7-yl)-6-oxo-1H-pyrazolo[4,3-c]pyridazin-5(6H)-yl)benzonitrile] | – | ≥ 7.30 | 279% | –
Cc1cccc(F)c1-n1nc2c(-c3ccc(N4CC5CCC(C4)N5CCO)cc3)n[nH]c2cc1=O [Compound 117, 5-(2-fluoro-6-methylphenyl)-3-(4-(8-(2-hydroxyethyl)-3,8-diazabicyclo[3.2.1]octan-3-yl)phenyl)-1H-pyrazolo[4,3-c]pyridazin-6(5H)-one] | 566% | ≥ 7.30 | – | –
COc1cccc(F)c1-n1nc2c(-c3ccc(N4CCC(O)CC4)cc3)n[nH]c2cc1=O [Compound 139, 5-(2-fluoro-6-methoxyphenyl)-3-(4-(4-hydroxylpiperidin-1-yl)phenyl)-1H-pyrazolo[4,3-c]pyridazin-6(5H)-one] | 315% | ≥ 7.30 | – | –
CN1CCN(c2ccc(-c3n[nH]c4cc(=O)n(-c5ccccc5Cl)nc34)cc2)CC1 [Compound 7, 5-(2-chlorophenyl)-3-(4-(4-methylpiperazin-1-yl)phenyl)-1H-pyrazolo[4,3-c]pyridazin-6(5H)-one] | – | 6.30 to 7.30 | 314% | –
CCc1cccc(F)c1-n1nc2c(-c3ccc(N4CCN(C)CC4)nc3)n[nH]c2cc1=O [Compound 98, 5-(2-ethyl-6-fluorophenyl)-3-(6-(4-methylpiperazin-1-yl)pyrid-3-yl)-1H-pyrazolo[4,3-c]pyridazin-6(5H)-one] | 850% | ≥ 7.30 | – | –
Cc1cccc(F)c1-n1nc2c(-c3ccc4c(c3)CN(C)CC4)n[nH]c2cc1=O [Compound 156, 5-(2-fluoro-6-methylphenyl)-3-(2-methyl-1,2,3,4-tetrahydroisoquinolin-7-yl)-1H-pyrazolo[4,3-c]pyridazin-6(5H)-one] | 849% | ≥ 7.30 | – | –
COc1cccc(F)c1-n1nc2c(-c3ccc(N4CCN(CCO)CC4)cc3)n[nH]c2cc1=O [Compound 113, 5-(2-fluoro-6-methoxyphenyl)-3-(4-(4-(2-hydroxyethyl)piperazin-1-yl)phenyl)-1H-pyrazolo[4,3-c]pyridazin-6(5H)-one] | 368% | ≥ 7.30 | – | –
COc1cccc(F)c1-n1nc2c(-c3ccc(N4CCN(C)C(CO)C4)cc3)n[nH]c2cc1=O (stereo not shown) [Compound 121, 5-(2-fluoro-6-methoxyphenyl)-3-(4-(3-(hydroxymethyl)-4-methylpiperazin-1-yl)phenyl)-1H-pyrazolo[4,3-c]pyridazin-6(5H)-one] | 459% | ≥ 7.30 | – | –
Cc1cccc(F)c1-n1nc2c(-c3ccc(N4C[C@H]5C[C@@H]4CN5C)cc3)n[nH]c2cc1=O [Compound 88, 5-(2-fluoro-6-methylphenyl)-3-(4-((1R,4R)-5-methyl-2,5-diazabicyclo[2.2.1]heptan-2-yl)phenyl)-1H-pyrazolo[4,3-c]pyridazin-6(5H)-one] | 550% | 6.30 to 7.30 | – | –
Cc1cccc(F)c1-n1nc2c(-c3ccc4c(c3)CNCC4)n[nH]c2cc1=O [Compound 161, 5-(2-fluoro-6-methylphenyl)-3-(1,2,3,4-tetrahydroisoquinolin-7-yl)-1H-pyrazolo[4,3-c]pyridazin-6(5H)-one hydrochloride] | 393% | ≥ 7.30 | – | –
Cc1cccc(F)c1-n1nc2c(-c3ccc(N4CCN(C)C(CO)C4)cc3)n[nH]c2cc1=O (stereo not shown) [Compound 120, 5-(2-fluoro-6-methylphenyl)-3-(4-(3-(hydroxymethyl)-4-methylpiperazin-1-yl)phenyl)-1H-pyrazolo[4,3-c]pyridazin-6(5H)-one] | 482% | ≥ 7.30 | – | –
